Data on eleven compounds can be found in PMC6920777, “Pharmacokinetic Alteration of Paclitaxel by Ferulic Acid Derivative” (Pharmaceutics, 2019).

A word on the melting point: it is the temperature, or range, at which the solid turns liquid. Usually IC50 stands for the midpoint of a concentration-inhibition curve.

Series [1] can be described thus: Pharmacokinetic study of oral PTX alone or co-administered with compound 5c. The series is classed as in vivo, male Sprague-Dawley rats. As to the method:
The pharmacokinetic (PK) study was performed using male Sprague-Dawley rats (6 weeks old and 200 g–235 g) commercially available from Orient Bio (Seongnam, Korea). All animal procedures were approved by the Institutional Animal Care and Use Committee of Ewha Womans University (No. 2012-01-019, approved on 3 April 2012), Republic of Korea.
Rats were divided into the following 4 groups: Oral administration (PO) of PTX (25 mg/kg) alone and co-administration of PTX (25 mg/kg) with compound 5c at three different doses (0.5, 2 and 5 mg/kg). Each group had 5 rats except for a group of 2 mg/kg dose (n = 4). The blood samples (0.2 mL) were collected from the common carotid artery at 0, 0.25, 0.5, 1, 2, 3, 4, 6, 8, 10 and 24 h.
PTX concentrations in rat plasma were analyzed by Agilent HP1100 series system using a Capcell-pak C18 MG120 column (3 mm × 250 mm, 5 µm, Shiseido, Tokyo, Japan). The samples were eluted with mobile phase composed of acetonitrile and 0.1% phosphoric acid (1/1, v/v) at a flow rate of 0.5 mL/min for 30 min and detected at a wavelength of 227 nm. The HPLC-UV method was validated by FDA guidelines as follows: Specificity (PTX: 14.8 min; internal standard: 26.7 min), linearity over the concentration range between 0.01 and 10 µg/mL, lower limit of quantification (0.01 µg/mL) and intra-/inter-day precision and accuracy (2.4–9.1% and 92.1–102.7%, respectively). All other details for sample preparation and quantification of PTX concentrations in rat plasma were reported previously.
The following PK parameters of PTX after oral single dosing to rats were estimated by non-compartmental analysis using WinNonlin® Professional version 5.2 software (Pharsight Corporation, Mountain View, CA, USA): The area under the plasma concentration-time curve from 0 h to infinity (AUCinf), elimination half-life (t1/2), apparent volume of distribution after oral single dosing (Vz/F), oral clearance (Cl/F), maximum plasma concentration (Cmax) and the time required to reach Cmax (Tmax). The relative bioavailability (RB, %) of PTX was calculated with the following formula: RB ( % )=AUCinf po co−administraion/AUCinf po control×100
AUCinf po control is the AUCinf obtained from oral single administration of PTX alone, and AUCinf po co-administration is the AUCinf obtained from oral single co-administration of PTX and compound 5c.

The test system of series [2] is MCF-7/ADR cells. Put plainly: Toxic effect of each derivative and VER alone (cell survival). The series is classed as cell-based. The following applies: Homo sapiens, NCI/ADR-RES, 2 h incubation, read-out: cell survival ratio; for viability at 5 µM: mean (SD); for viability at 10 µM / viability at 25 µM / viability at 50 µM / viability at 100 µM: mean. As to the method: The effect of eight FA derivatives on cytotoxicity was studied in P-gp overexpressed human breast cancer cells (MCF-7/ADR) using the SRB assay. The details of the cell culture condition and the assay method were presented in our previous reports. […] The assay was performed in triplicate. […]
Data are presented as mean ± SD.
The numerical data were represented the cell survival ratio.

In series [3] the test system is MCF-7/ADR cells. The series is described as follows: [3H]-daunomycin efflux study. The series is classed as cell-based, human. The protocol: (§1) The methods for [^3H]-DNM accumulation and efflux studies were reported previously. […] The experiments were performed in triplicate.
(§2) [^3H]-DNM uptake and efflux were determined after the incubation with each derivative (100 µM) for 2 h and 1 h, respectively. […] Control represents accumulation or efflux of tritium labeled DNM alone.

Series [4] concerns MCF-7/ADR cells. Put plainly: [3H]-daunomycin accumulation study. The series is classed as cell-based, human. The following applies: 100 µM, 2 h incubation, mean ± SD, triplicate. The protocol:
as §1, §2

Series [5] deals with T1, human P-gp membranes (Homo sapiens, UniProt P08183).
T1 construct: purchased
Put plainly: Human P-glycoprotein ATPase activity assay. The series is classed as biochemical. The following applies: for P-gp ATPase activity, ratio of blank (control): human P-gp membranes. As to the method:
The ATPase activities were expressed as the rate of phosphate release per milligram of membrane protein and converted to the relative ratio versus the control. This assay was performed in duplicate.

For series [6], the system named is MCF-7/ADR cells. Put plainly: Cytotoxicity of DNM with FA derivatives, SRB assay. The series is classed as cell-based, human. The following applies: for IC50 of DNM as fraction of negative control (DNM alone) value: derivative 100 µM. The protocol: The effect of eight FA derivatives on cytotoxicity was studied in P-gp overexpressed human breast cancer cells (MCF-7/ADR) using the SRB assay. The details of the cell culture condition and the assay method were presented in our previous reports. […] The assay was performed in triplicate.
On the technique in general: In SRB staining, fixed cells bind dye roughly in proportion to their protein.

On the set-up of series [7]: method as in PMID 24373826. The following applies: rats; cited from earlier work.
On the set-up of series [8]: method as in PMID 24373826. The following applies: humans; cited from earlier work.
[9] abbreviates: 100 µM, 1 h incubation, mean ± SD, triplicate.

Where two headings read alike, the source gives them in different places.

T1 sequence (P08183 whole entry): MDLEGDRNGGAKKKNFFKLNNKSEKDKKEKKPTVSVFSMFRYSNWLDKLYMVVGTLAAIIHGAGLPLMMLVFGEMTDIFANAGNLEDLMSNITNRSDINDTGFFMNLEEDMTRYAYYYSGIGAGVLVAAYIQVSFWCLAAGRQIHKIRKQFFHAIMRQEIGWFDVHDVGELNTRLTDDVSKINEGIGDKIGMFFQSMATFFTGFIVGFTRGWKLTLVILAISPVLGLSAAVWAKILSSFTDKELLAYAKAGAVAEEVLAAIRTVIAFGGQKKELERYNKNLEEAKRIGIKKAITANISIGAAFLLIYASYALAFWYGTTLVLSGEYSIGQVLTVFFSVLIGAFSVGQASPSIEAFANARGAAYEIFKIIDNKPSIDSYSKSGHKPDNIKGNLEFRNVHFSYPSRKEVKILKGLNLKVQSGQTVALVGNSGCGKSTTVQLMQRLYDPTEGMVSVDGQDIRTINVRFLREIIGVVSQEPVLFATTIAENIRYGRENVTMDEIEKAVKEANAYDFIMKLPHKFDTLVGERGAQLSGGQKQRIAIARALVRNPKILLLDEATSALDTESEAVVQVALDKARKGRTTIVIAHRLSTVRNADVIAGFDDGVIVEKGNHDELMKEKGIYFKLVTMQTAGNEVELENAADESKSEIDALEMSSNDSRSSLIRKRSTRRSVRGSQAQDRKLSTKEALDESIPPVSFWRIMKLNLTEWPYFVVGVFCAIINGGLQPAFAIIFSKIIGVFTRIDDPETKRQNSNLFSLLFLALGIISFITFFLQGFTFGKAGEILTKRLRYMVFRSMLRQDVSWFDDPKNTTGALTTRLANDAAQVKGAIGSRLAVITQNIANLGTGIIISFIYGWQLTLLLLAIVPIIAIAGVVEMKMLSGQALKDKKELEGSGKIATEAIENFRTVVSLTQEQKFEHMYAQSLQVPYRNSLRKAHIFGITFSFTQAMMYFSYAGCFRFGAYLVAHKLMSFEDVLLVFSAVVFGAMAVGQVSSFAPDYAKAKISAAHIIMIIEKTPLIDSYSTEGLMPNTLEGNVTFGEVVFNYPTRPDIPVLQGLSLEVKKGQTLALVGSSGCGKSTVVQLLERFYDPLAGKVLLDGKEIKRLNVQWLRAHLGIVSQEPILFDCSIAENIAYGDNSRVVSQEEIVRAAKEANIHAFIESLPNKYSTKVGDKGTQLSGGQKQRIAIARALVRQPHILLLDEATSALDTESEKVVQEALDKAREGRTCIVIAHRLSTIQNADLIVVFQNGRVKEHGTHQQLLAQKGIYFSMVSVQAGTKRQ

`CC(=O)O[C@H]1C(=O)[C@@]2(C)[C@H]([C@H](OC(=O)c3ccccc3)[C@]3(O)C[C@H](OC(=O)[C@H](O)[C@@H](NC(=O)c4ccccc4)c4ccccc4)C(C)=C1C3(C)C)[C@]1(OC(C)=O)CO[C@@H]1C[C@@H]2O` [PTX, Paclitaxel]: in series [1] (PTX 25 mg/kg PO alone, rats), the “Cl/F of PTX” value is given as 8.22 ± 1.84 L/h and the “Cmax of PTX” value worked out at 187 ± 41 ng/mL. Further, the AUC(0-inf) in series [1] (male, Sprague-Dawley, rat, plasma, PTX 25 mg/kg PO alone, rats, read-out: AUCinf of PTX) was 773 ± 169 ng·h/mL. For the same compound, the Vd/F in series [1] (male, Sprague-Dawley, rat, plasma, PTX 25 mg/kg PO alone, rats, read-out: Vz/F of PTX) worked out at 35.1 ± 16.8 L. The half-life in [1] (male, Sprague-Dawley, rat, plasma, PTX 25 mg/kg PO alone, rats, read-out: t1/2 of PTX (converted)) was 2.8 ± 0.86 h.

Turning to `CCCOc1ccc(/C=C/C(=O)N(C)C)cc1OC` [Compound 5d, (E)-3-(3-methoxy-4-propoxyphenyl)-N,N-dimethylacrylamide], the melting point is 108 to 109 °C. Besides, in series [2], the viability at 5 µM is 102%, the viability at 10 µM is 97.8%, the viability at 25 µM came to 97.1% and the viability at 50 µM came to 97.1%. For the same compound, the viability at 100 µM in [2] turned out to be 96.2%.

With `CCCOc1ccc(/C=C/C(=O)N2CCC(O)(c3ccccc3)CC2)cc1OC` [Compound 5h, (E)-1-(4-hydroxy-4-phenylpiperidin-1-yl)-3-(3-methoxy-4-propoxyphenyl) prop-2-en-1-one], the melting point fell in the range of 163 to 164 °C. The “efflux of [3H]-DNM” value in series [3] (setting [9]) is 43.3 ± 0.9%. In series [2], the viability at 5 µM is 103%, the viability at 10 µM was determined as 99.2%, the viability at 25 µM amounted to 94.6% and the viability at 50 µM amounted to 89.4%. Further, the viability at 100 µM in series [2] was found to be 89.6%. Moreover, in [4], the “accumulation of [3H]-DNM” value came out at 426.1 ± 26.2%. Further, the “P-gp ATPase activity, ratio of blank (control)” value (“P-gp ATPase activity, ratio” for short) in series [5] (20 μM) came to 3.99. For the same compound, the “P-gp ATPase activity, ratio” value in series [5] (50 μM) is 2.69. Further, the “P-gp ATPase activity, ratio” value in series [5] (100 μM) turned out to be 2.79. Also, the “IC50 of DNM as fraction of negative control (DNM alone) value” in series [6] is given as “about 1/5”.

On to `CCCOc1ccc(/C=C/C(=O)N(C)Cc2ccccc2)cc1OC` [Compound 5f, (E)-N-benzyl-3-(3-methoxy-4-propoxyphenyl)-N-methylacrylamide], for which, in series [2], the viability at 5 µM is 98.9%, the viability at 10 µM stood at 99.4%, the viability at 25 µM was found to be 100% and the viability at 50 µM is 96.9%. For the same compound, in [2], the viability at 100 µM was found to be 92.8%. Further, the “P-gp ATPase activity, ratio” value in series [5] (20 μM) stood at 2.85. In addition, in series [5] (50 μM), the “P-gp ATPase activity, ratio” value turned out to be 3.12. Also, the “P-gp ATPase activity, ratio” value in series [5] (100 μM) is on record as 3.35. Also, in [6], the “IC50 of DNM as fraction of negative control (DNM alone) value” is “about 1/5”.

On to `COc1cc(/C=C/C(=O)O)ccc1O` [FA, Ferulic acid], for which the “Time within which FA is absorbed in the intestine” value was 5 to 15 min in series [7] and not above 30 min in series [8].

The compound `CCCOc1ccc(/C=C/C(=O)N2CCCCC2)cc1OC` [Compound 5a, (E)-3-(3-methoxy-4-propoxyphenyl)-1-(piperidin-1-yl)prop-2-en-1-one] gave a melting point of 91 to 92 °C. Besides, in [2], the viability at 5 µM worked out at 96.5%, the viability at 10 µM was found to be 94.1%, the viability at 25 µM turned out to be 96% and the viability at 50 µM came to 93.8%. For the same compound, the viability at 100 µM in series [2] was 87.8%.

For `COc1cc(/C=C/C(=O)N(C)C)ccc1OCc1ccccc1` [Compound 5g, (E)-3-(4-benzyloxy-3-methoxyphenyl)-N,N-dimethylacrylamide], the melting point lay in the range of 135 to 136 °C. In [2], the viability at 5 µM is 104%, the viability at 10 µM was 102%, the viability at 25 µM worked out at 100% and the viability at 50 µM turned out to be 99.3%. Also, the viability at 100 µM in [2] was 102%. For the same compound, the “P-gp ATPase activity, ratio” value in [5] (20 μM) is listed as 1.26. The “P-gp ATPase activity, ratio” value in [5] (50 μM) worked out at 1.77. Further, the “P-gp ATPase activity, ratio” value in [5] (100 μM) was found to be 5.19. Besides, the “IC50 of DNM as fraction of negative control (DNM alone) value” in series [6] is recorded as “about 1/5”.

For `COc1cc(/C=C/C(=O)N2CCCCC2)ccc1OCc1ccccc1` [Compound 5c, (E)-3-(4-benzyloxy-3-methoxyphenyl)-1-(piperidin-1-yl)prop-2-en-1-one], in series [3] (setting [9]), the “efflux of [3H]-DNM” value was 43.1 ± 4.6%. Besides, in series [2], the viability at 5 µM worked out at 101%, the viability at 10 µM came to 98.5%, the viability at 25 µM was found to be 96.1% and the viability at 50 µM turned out to be 96.9%. Besides, in [2], the viability at 100 µM turned out to be 87.6%. The “accumulation of [3H]-DNM” value in series [4] amounted to 438.4 ± 4.9%. Moreover, the “Cl/F of PTX” value in series [1] (PTX 25 mg/kg PO co-administered with compound 5c 2 mg/kg, rats) is given as 4.10 ± 1.53 L/h. In series [1] (PTX 25 mg/kg PO co-administered with compound 5c 5 mg/kg, rats), the “Cl/F of PTX” value stood at 4.53 ± 1.04 L/h. In [1] (compound 5c 0.5 mg/kg co-administered, compared to PO control (PTX alone)), the “Effect on PK parameters of PTX” value was “did not alter any PK parameters of PTX”. Further, in [1] (compound 5c 5 mg/kg co-administered with PTX in rats), the “Improvement of the BA of PTX” value is recorded as “approximately twofold”. Besides, the “P-gp ATPase activity, ratio” value in series [5] (20 μM) is recorded as 1.54. In [5] (50 μM), the “P-gp ATPase activity, ratio” value came out at 2.48. Besides, in [5] (100 μM), the “P-gp ATPase activity, ratio” value turned out to be 4.02. Also, the “Concentration dependence of P-gp ATPase activity” value in [5] (20, 50 and 100 μM) is recorded as “stably increased ATPase activity in a concentration-dependent manner”. The “IC50 of DNM as fraction of negative control (DNM alone) value” in series [6] is “about 1/5”.

`COc1cc(/C=C/C(=O)N2CCCCC2)ccc1OCC(C)C` [Compound 5b, (E)-3-(4-isobutoxy-3-methoxyphenyl)-1-(piperidin-1-yl)prop-2-en-1-one] yielded a melting point of 96 to 97 °C. Moreover, in [2], the viability at 5 µM was 101%, the viability at 10 µM came out at 97.8%, the viability at 25 µM is 96.1% and the viability at 50 µM stood at 96.1%. For the same compound, the viability at 100 µM in [2] came out at 92%.

The compound `COc1cc(/C=C/C(=O)N(C)C)ccc1OCC(C)C` [Compound 5e, (E)-3-(4-isobutoxy-3-methoxyphenyl)-N,N-dimethylacrylamide] displayed a melting point of 109 to 111 °C. Further, the “efflux of [3H]-DNM” value in series [3] (setting [9]) was determined as 39.9 ± 3.8%. Besides, in series [2], the viability at 5 µM was 100%, the viability at 10 µM came to 99.4%, the viability at 25 µM came out at 95.8% and the viability at 50 µM came out at 95%. The viability at 100 µM in series [2] stood at 94.8%. The “accumulation of [3H]-DNM” value in series [4] is 382.1 ± 20.4%.

As to `COc1cccc2c1C(=O)c1c(O)c3c(c(O)c1C2=O)C[C@@](O)(C(C)=O)C[C@@H]3O[C@H]1C[C@H](N)[C@H](O)[C@H](C)O1` [DNM, daunomycin, reference compound], in series [3] (control: tritium labeled DNM alone, 1 h), the “efflux of [3H]-DNM” value was 63.0 ± 3.3%. Moreover, the IC50 in series [6] (Homo sapiens, NCI/ADR-RES, negative control: DNM alone, incubation) turned out to be 31.7 µM.
